Assay results from US20250380696A1, “METHOD FOR CONTROLLING UNDESIRED PLANTS AND PROMOTING GROWTH OF USEFUL PLANTS” (ISHIHARA SANGYO KAISHA, LTD., priority 2022, published 2025).

Legend:
Type in all cases: in vivo
[1] = tested on: Italian ryegrass (Lolium multiflorum); assay: (9) Herbicidal effect test, pot, spray at 3.2 to 4.0 leaf stage; conditions: 6th day after spraying
Description: (§1) [formula] • X: growth inhibition rate when treated with α (g/ha) of compound A, • Y: growth inhibition rate when treated with β (g/ha) of compound B, • E: growth inhibition rate expected when treated with α (g/ha) of compound A and β (g/ha) of compound B (expected value).
Upland soil was put in a 1/1,000,000 hectare pot, and seeds of Italian ryegrass (Lolium multiflorum) were sown. When Italian ryegrass reached 3.2 to 4.0 leaf stage, a water-based suspension containing tiafenacil as the active ingredient, prepared by a conventional method for preparing a water-based suspension, and a wettable powder containing tri-allate as the active ingredient, prepared by a conventional method for preparing a wettable powder, an emulsifiable concentrate containing pethoxamid as the active ingredient (tradename: Successor 600, manufactured by Stähler Suisse SA) or an emulsifiable concentrate containing dimethenamid-P as the active ingredient (tradename: Fieldstar P emulsifiable concentrate, manufactured by BASF) were diluted with water (in an amount corresponding to 200 liter per hectare) containing 0.5 vol % of an agricultural spreader (tradename: Destiny HC, manufactured by Winfield Solutions, LLC.) and sprayed by a small spray gun (model: W-101-132G, manufactured by ANEST IWATA Corporation). On the 6th day after spraying, the state of growth of the Italian ryegrass was visually observed, and the growth inhibition rate (%) was obtained in accordance with the evaluation standards described in the above (1) herbicidal effect test, and the results are shown in Table 9. Further, the expected value of the growth inhibition rate (%) was calculated in accordance with the Colby's formula described in the above (1) herbicidal effect test, and the results are also shown in Table 9.

[2] = tested on: forage corn (cultivar: SNOW DENT OTOHA); assay: (19) Plant growth promotion effect test (corn), Italian ryegrass sown; conditions: 21st day after the sowing, above-ground part
Description: (§2) Upland soil was put in a 1/1,000,000 hectare pot, and seeds of Italian ryegrass (Lolium multiflorum) were sown. When the Italian ryegrass reached 3.2 to 3.7 leaf stage, a water-based suspension containing tiafenacil as the active ingredient, prepared by a conventional method for preparing a water-based suspension, and a wettable powder containing tri-allate as the active ingredient, prepared by a conventional method for preparing a wettable powder or an emulsifiable concentrate containing pethoxamid as the active ingredient (tradename: Successor 600, manufactured by Stähler Suisse SA) were diluted with water (in an amount corresponding to 200 liter per hectare) containing 0.5 vol % of an agricultural spreader (tradename: Destiny HC, manufactured by Winfield Solutions, LLC.) and sprayed by a small spray gun (model: W-101-132G, manufactured by ANEST IWATA Corporation). Seeds of forage corn (cultivar: SNOW DENT OTOHA, manufactured by SNOW BRAND SEED Co., Ltd.) were sown in the pot after spraying. On the 21st day after the sowing, the above-ground part of the forage corn was reaped, and its weight was measured to obtain the raw weight.

[3] = tested on: Italian ryegrass (Lolium multiflorum); assay: (6) Herbicidal effect test, pot, spray at 2.5 to 3.0 leaf stage; conditions: 14th day after spraying
Description: as §1
Upland soil was put in a 1/1,000,000 hectare pot, and seeds of Italian ryegrass (Lolium multiflorum) were sown. When the Italian ryegrass reached 2.5 to 3.0 leaf stage, a water-based suspension containing tiafenacil as the active ingredient, prepared by a conventional method for preparing a water-based suspension, and water dispersible granules containing pyroxasulfone as the active ingredient (tradename: Sakura, manufactured by Bayer Crop Science) were diluted with water (in an amount corresponding to 200 liter per hectare) containing 0.5 vol % of an agricultural spreader (tradename: Destiny HC, manufactured by Winfield Solutions, LLC.) and sprayed by a small spray gun (model: W-101-132G, manufactured by ANEST IWATA Corporation). On the 14th day after spraying, the state of growth of the Italian ryegrass was visually observed, and the growth inhibition rate (%) was obtained in accordance with the evaluation standards described in the above (1) herbicidal effect test, and the results are shown in Table 6. Further, the expected value of the growth inhibition rate (%) was calculated in accordance with the Colby's formula described in the above (1) herbicidal effect test, and the results are also shown in Table 6.

[4] = tested on: Italian ryegrass (Lolium multiflorum); assay: (8) Herbicidal effect test, pot, spray at 3.0 to 3.1 leaf stage; conditions: 4th day after spraying
Description: as §1
Upland soil was put in a 1/1,000,000 hectare pot, and seeds of Italian ryegrass (Lolium multiflorum) were sown. When Italian ryegrass reached 3.0 to 3.1 leaf stage, a water-based suspension containing tiafenacil as the active ingredient, prepared by a conventional method for preparing a water-based suspension, and an emulsifiable concentrate containing S-metolachlor as the active ingredient (tradename: Dual Gold, manufactured by Syngenta), a wettable powder containing metribuzin as the active ingredient (tradename: SENCOR wettable powder, manufactured by Bayer Crop Science) or water dispersible granules containing pyroxasulfone as the active ingredient (tradename: Sakura, manufactured by Bayer Crop Science) were diluted with water (in an amount corresponding to 200 liter per hectare) containing 0.5 vol % of an agricultural spreader (tradename: Destiny HC, manufactured by Winfield Solutions, LLC.) and sprayed by a small spray gun (model: W-101-132G, manufactured by ANEST IWATA Corporation). On the 4th day after spraying, the state of growth of the Italian ryegrass was visually observed, and the growth inhibition rate (%) was obtained in accordance with the evaluation standards described in the above (1) herbicidal effect test, and the results are shown in Table 8. Further, the expected value of the growth inhibition rate (%) was calculated in accordance with the Colby's formula described in the above (1) herbicidal effect test, and the results are also shown in Table 8.

[5] = tested on: forage corn (cultivar: SNOW DENT OTOHA); assay: (18) Plant growth promotion effect test (corn), Italian ryegrass sown; conditions: 21st day after the sowing, above-ground part
Description: as §2, with “2.7” for “3.2”, “3.1” for “3.7”, “and” for “and a wettable powder containing tri-allate as the active ingredient, prepared by a conventional method for preparing a wettable powder or”, “S-metolachlor” for “pethoxamid”, “Dual Gold,” for “Successor 600,”, “Syngenta), a wettable powder containing metribuzin as the active ingredient (tradename: SENCOR wettable powder, manufactured by Bayer Crop Science) or water dispersible granules containing pyroxasulfone as the active ingredient (tradename: Sakura, manufactured by Bayer Crop Science)” for “Stähler Suisse SA)”

[6] = Lolium multiflorum, Dose 125 g/ha, read-out: Growth inhibition rate (%) Measured value

CCOCCN(C(=O)CCl)C(=C(C)C)c1ccccc1 [pethoxamid] was tested, and the “Growth inhibition rate (%) Measured value” ([1]; Dose 312.5 g/ha) was 5%, the “Growth inhibition rate (%) Measured value” ([1]; Dose 437.5 g/ha) was 3% and the “Growth inhibition rate (%) Measured value” ([1]; Dose 625 g/ha) was 8%. The “Raw weight (g) of forage corn” value ([2]; Dose 93.8 g/ha) was 3.4 g, the “Raw weight (g) of forage corn” value ([2]; Dose 375 g/ha) was 2.2 g and the “Raw weight (g) of forage corn” value ([2]; Dose 750 g/ha) was 3.6 g.
With Cn1nc(C(F)(F)F)c(CS(=O)(=O)C2=NOC(C)(C)C2)c1OC(F)F [pyroxasulfone] the inhibition at 15 g/ha ([3]; Lolium multiflorum, Dose 15 g/ha, read-out: Growth inhibition rate (%) Measured value) was 0%, the inhibition at 30 g/ha ([3]; Lolium multiflorum, Dose 30 g/ha, read-out: Growth inhibition rate (%) Measured value) was 5% and the inhibition at 125 g/ha [3, 6] was 35%. The inhibition at 250 g/ha ([3]; Lolium multiflorum, Dose 250 g/ha, read-out: Growth inhibition rate (%) Measured value) was 42%, the inhibition at 500 g/ha ([3]; Lolium multiflorum, Dose 500 g/ha, read-out: Growth inhibition rate (%) Measured value) was 67% and the inhibition at 1000 g/ha ([3]; Lolium multiflorum, Dose 1000 g/ha, read-out: Growth inhibition rate (%) Measured value) was 72%. For the same compound, the inhibition at 188 g/ha ([4]; Lolium multiflorum, Dose 188 g/ha, read-out: Growth inhibition rate (%) Measured value) was 10%, the inhibition at 375 g/ha ([4]; Lolium multiflorum, Dose 375 g/ha, read-out: Growth inhibition rate (%) Measured value) was 20% and the “Raw weight (g) of forage corn” value ([5]; Dose 7.5 g/ha) was 5.8 g. The “Raw weight (g) of forage corn” value ([5]; Dose 125 g/ha) was 3.3 g and the “Raw weight (g) of forage corn” value ([5]; Dose 250 g/ha) was 3.8 g.
For CCc1cccc(C)c1N(C(=O)CCl)[C@@H](C)COC [S-metolachlor], the “Growth inhibition rate (%) Measured value” ([4]; Dose 281 g/ha) was 7%, the “Growth inhibition rate (%) Measured value” ([4]; Dose 500 g/ha) was 10% and the “Growth inhibition rate (%) Measured value” ([4]; Dose 625 g/ha) was 13%. For the same compound, the “Raw weight (g) of forage corn” value ([5]; Dose 7.5 g/ha) was 3.5 g and the “Raw weight (g) of forage corn” value ([5]; Dose 750 g/ha) was 3.1 g.
For COC(=O)CCNC(=O)C(C)Sc1cc(-n2c(=O)cc(C(F)(F)F)n(C)c2=O)c(F)cc1Cl (stereo not drawn) [tiafenacil], the “Growth inhibition rate (%) Measured value” ([3]; Dose 12.5 g/ha) was 63%, the “Growth inhibition rate (%) Measured value” ([4]; Dose 6.25 g/ha) was 20% and the “Growth inhibition rate (%) Measured value” ([1]; Dose 6.25 g/ha) was 30%. The “Raw weight (g) of forage corn” value ([5]; Dose 6.25 g/ha) was 3.2 g and the “Raw weight (g) of forage corn” value ([2]; Dose 6.25 g/ha) was 3.9 g.
In the case of COC[C@H](C)N(C(=O)CCl)c1c(C)csc1C [dimethenamid-P], the “Growth inhibition rate (%) Measured value” ([1]; Dose 500 g/ha) is reported as 33% and the “Growth inhibition rate (%) Measured value” ([1]; Dose 625 g/ha) is reported as 40%.
In the case of CC(C)N(C(=O)SCC(Cl)=C(Cl)Cl)C(C)C [tri-allate], the inhibition at 937.5 g/ha ([1]; Lolium multiflorum, Dose 937.5 g/ha, read-out: Growth inhibition rate (%) Measured value) is reported as 3%, the “Raw weight (g) of forage corn” value ([2]; Dose 75 g/ha) is reported as 2.6 g and the “Raw weight (g) of forage corn” value ([2]; Dose 625 g/ha) is reported as 2.2 g. For the same compound, the “Raw weight (g) of forage corn” value ([2]; Dose 1250 g/ha) was 2.5 g.
CSc1nnc(C(C)(C)C)c(=O)n1N [metribuzin] gave an inhibition at 125 g/ha [4, 6] of 3%, an inhibition at 438 g/ha ([4]; Lolium multiflorum, Dose 438 g/ha, read-out: Growth inhibition rate (%) Measured value) of 10% and an inhibition at 750 g/ha ([4]; Lolium multiflorum, Dose 750 g/ha, read-out: Growth inhibition rate (%) Measured value) of 20%. The inhibition at 938 g/ha ([4]; Lolium multiflorum, Dose 938 g/ha, read-out: Growth inhibition rate (%) Measured value) was 33%, the “Raw weight (g) of forage corn” value ([5]; Dose 225 g/ha) was 4.7 g and the “Raw weight (g) of forage corn” value ([5]; Dose 550 g/ha) was 5.6 g.
